The results in this text go back to patent US6603046B1, “Bis-aromatic a,β-unsaturated ketones” (Lica Pharmaceuticals A/S, priority 1992, dated 2003).

Broadly, the inhibition is the relative decrease from the control value, in per cent.

Values after ≈ are worked out from the molar mass of the structure shown. Where two headings read alike, the source gives them in different places.

Series [1] concerns Corynebacterium species. In words: microbe, parasite or virus in culture. The series is classed as cell-based.
The nature of series [2]: Absorption study in rats, oral, serum concentration (Example 20). The series is classed as in vivo. The protocol:
The absorption pattern and pharmaco-kinetics of licochalcone A in rats given by oral route were determined compared with pharmacokinetics of licochalcone A in rats given intravenously.
Number of rats: 4 for each group […]
Route: Oral, adminitered once.
Sample: 2 ml of blood was drawn 4 times from each rat.
Serum or plasma was diluted with one part of acetonitrile, left for 15 min at 4° C., and centrifugated for 3 min at 10,000 g. An aliquot of the supernatant was chromatographed at 37° C. by HPLC over Spherisorb ODS-2 (5 μm, 120×4.5 mm, Phase Separation LTD, UK) using acetonitrile aqueous acetic acid, 2%, (1:1) as an eluent, flow rate 1.5 ml/min, and UV detection (370 nm and 254 nm).

Series [3] has as its system human monocytes. In words: Zymosan-enhanced chemiluminescence, monocytes. To be noted: Monocyte, read-out: percentage inhibition of chemiluminescence response to opsonized zymosan (mean ± SEM). The series is classed as cell-based. The protocol: Chemiluminescence. Monocytes were prepared from heparinized blood by metrizoate sodium-Ficoll (the same as lymphocyte proliferation). Polymorphonuclear leucocytes (PMN) were prepared from heparinized blood by dextran sedimentation and metrizoate sodium-Ficoll separation. Remaining erythrocytes were removed by hypotonic lysis. A zymosan-enhanced chemiluminescence assay was used. The assay was performed in a total volume of 5.5 ml at ambient temperature in glass scintillation vials. A Beckman L 8000 scintillation counter (placed under air-conditioned, thermostat controlled, 21±1° C. conditions) was used in the out-of-coincidence mode A 1.1 ml portion of PMN or monocyte suspension (1×10^6 cells per ml) was pre-incubated with 1.1 ml of various concentrations of licochalcone A for 30 min at 37° C. in a rotor at 20 rpm Luminol (5-amino-2,3-dihydro-1,4-phatalazinedione) obtained from Sigma Chemical Co., St Louis, Mo., U.S.A., was maintained as a stock solution of 10 mg/ml in NaOH (0.1 N) and diluted in Krebs-Ringer solution immediately before use. Each vial contained 5×10^5 pre-incubated PMN or monocyte, 4 mg of opsonized zymosan (Sigma), 50 μl of luminol solution, and 4.45 ml of Krebs-Ringer solution containing 5 mM glucose. The final concentration of luminol in the assay mixture was 5×10^−8m.

Turning to `C=CC(C)(C)c1cc(/C=C/C(=O)c2ccc(O)cc2)c(OC)cc1O` [Licochalcone A, licochalcone A], the figures for the MIC in series [1] and in series [1] (read-out: MIC of one very sensitive corynebacterium species) were 0.3 to 4 µg/mL (≈ 0.887 to 11.8 µM) and 0.3 µg/mL, respectively. Further, in series [2] (4 hours after oral administration, 1000 mg per kg as printed), the concentration in serum is 0.16 µg/mL. The same molecule yielded a concentration at 24 h in series [2] (rat, serum, oral, 1000 mg per kg, after 24 hours, detection limit of the assay) of less than 50 ng/mL. Further, the concentration at 4 h in series [2] (rat, serum, po, 1000 mg per kg, 4 hours after oral administration, 1000 mg per kg as printed) amounted to 140 ng/mL. In series [3] (1 μg/ml), the inhibition at 1 µg/mL worked out at 8.2 ± 3.3%. Besides, the inhibition at 2 µg/mL in series [3] (2 μg/ml) was 7.8 ± 6.5%. For the same molecule, the inhibition at 5 µg/mL in series [3] (5 μg/ml) is 24.8 ± 5.3%. Further, the inhibition at 10 µg/mL in series [3] (10 μg/ml) came to 37.9 ± 3.1%. Also, the inhibition at 20 µg/mL in series [3] (20 μg/ml) amounted to 56.5 ± 3.8%.
